In patent US20250188082A1, “Use of Hypoxanthine Compound In Preparation of Drug For Treating Pulmonary Fibrosis” (Sichuan Yiasuo Pharmaceutical Technology Co., Ltd., priority 2022, published 2025):

System: bleomycin-induced pulmonary fibrosis model
Test: Comparison with comparative drugs: bleomycin-induced model, hydroxyproline and TGF-β
Assay type: in vivo, C57BL/6 mice
Conditions: 120 mg/kg/d intragastric, twice every day, 14 days, from two weeks after model; Day 15

Row | Compound | Hydroxyproline in bronchoalveolar lavage fluids [µg/mg] | Hydroxyproline in lung tissues [µg/mg] | TGF-β in bronchoalveolar lavage fluids [µg/L] | TGF-β in lung tissues [µg/L]
1 | CC(C)n1cnc2c(=O)[nH]cnc21 [Compound E-1] | 1.14 ± 0.16 | 2.18 ± 0.32 | 6.51 ± 0.24 | 63.95 ± 2.19
2 | CC(C)n1cnc2[nH]cnc2c1=O [Compound E-2] | 1.16 ± 0.28 | 1.93 ± 0.24 | 6.21 ± 0.24 | 66.56 ± 1.95
3 | CC(C)n1cnc2c(ncn2C(C)C)c1=O [Compound E-3] | 1.03 ± 0.29 | 2.15 ± 0.23 | 6.35 ± 0.28 | 62.54 ± 1.28
4 | CC(C)n1cnc2c(=S)[nH]cnc21 [Compound E-4] | 1.14 ± 0.18 | 1.98 ± 0.44 | 6.84 ± 0.95 | 63.58 ± 2.95
5 | CC(C)n1cnc2[nH]cnc2c1=S [Compound E-5] | 1.17 ± 0.16 | 2.15 ± 0.35 | 6.51 ± 0.86 | 65.82 ± 3.54
6 | CC(C)n1cnc2c(=O)n(C)cnc21 [Compound E-6] | 1.18 ± 0.15 | 2.35 ± 0.24 | 6.14 ± 0.85 | 63.56 ± 6.54
7 | CC(C)n1cnc2c(=N)[nH]cnc21 [Compound E-7] | 1.15 ± 0.18 | 1.99 ± 0.25 | 6.38 ± 0.95 | 68.25 ± 2.58
8 | CC(C)n1cnc2[nH]cnc2c1=N [Compound E-8] | 1.06 ± 0.19 | 2.03 ± 0.51 | 6.51 ± 0.58 | 68.54 ± 2.25
9 | CC(C)n1cnc2c(ncn2C(C)C)c1=S [Hypoxanthine analogue D] | 1.94 ± 0.13 | 2.15 ± 0.35 | 6.42 ± 1.02 | 93.36 ± 8.51
